Experimental data reported in patent publication US20120122820A1, “PRODRUGS AND THE USE THEREOF” (Bayer Schering Pharma Aktiengesellschaft, priority 2007, published 2012).
≈ marks a conversion by molar mass, not a printed value. Counter-ions that a name gives are not always drawn.

Legend:
[1] = Stability in buffer at various pH values; assay type: physicochemical
Method: 0.3 mg of the test substance is weighed into a 2 ml HPLC vial and 0.5 ml of acetonitrile or acetonitrile/DMSO (9:1) is added. The substance is dissolved by putting the sample vessel in an ultrasonic bath for about 10 seconds. Then 0.5 ml of the respective (buffer) solution is added, and the sample is again treated in the ultrasonic bath.
• pH 4: 1 liter of Millipore water is adjusted to pH 4.0 with 1 N hydrochloric acid; • pH 5: 0.096 mol of citric acid and 0.2 mol of sodium hydroxide ad 1 liter of water; • pH 7.4: 90.0 g of sodium chloride, 13.61 g of potassium dihydrogen phosphate and 83.35 g of 1 N sodium hydroxide solution are made up to 1 liter with water; this solution is then further diluted 1:10 with Millipore water. • pH 8: 0.013 mol of borax and 0.021 mol of hydrochloric acid ad 1 liter of water.
5 μl portions of the sample solution are analyzed by HPLC for their content of unchanged test substance, and of parent substance (A) produced, every hour over a period of 24 hours at 37° C. The percentage areas of the appropriate peaks are used for quantification.
HPLC method for Examples 1-21:
Agilent 1100 with DAD (G1314A), binary pump (G1312A), autosampler (G1329A), column oven (G1316A), thermostat (G1330A); column: Kromasil 100 C18, 60 mm×2.1 mm, 3.5 μm; column temperature: 30° C.; eluent A: water+5 ml of perchloric acid/liter, eluent B: acetonitrile; gradient: 0-1.0 min 98% A, 2% B; 1.0-9.0 min 2% A, 98% B; 9.0-13.0 min 2% A, 98% B; 13.0-13.5 min 98% A, 2% B; 13.5-15.0 min 98% A, 2% B; flow rate: 0.75 ml/min; UV detection: 210 nm.
HPLC method for Examples 22-40:
The ratios of the peak areas (F) at the respective time points in relation to the peak areas at the starting time are shown in Table 3 for representative exemplary embodiments: […]

[2] = i.v. pharmacokinetics in Wistar rats; assay type: in vivo; conditions: after i.v. bolus administration, male Wistar rats
Method: (§1) On the day before administration of the substance, a catheter for obtaining blood is implanted in the jugular vein of the experimental animals (male Wistar rats, body weight 200-250 g) under Isofluran® anesthesia.
(§2) On the day of the experiment, a defined dose of the test substance is administered as solution into the tail vein using a Hamilton® glass syringe (bolus administration, duration of administration <10 s). Blood samples (8-12 time points) are taken through the catheter sequentially over the course of 24 h after administration of the substance. Plasma is obtained by centrifuging the samples in heparinized tubes. Acetonitrile is added to a defined plasma volume per time point to precipitate proteins. After centrifugation, test substance and, where appropriate, known cleavage products of the test substance in the supernatant are determined quantitatively using a suitable LC/MS-MS method.
The measured plasma concentrations are used to calculate pharmacokinetic parameters of the test substance and of the active ingredient compound (A) liberated therefrom, such as AUC, Cmax, T1/2 (half-life) and CL (clearance).

[3] = Oral pharmacokinetics in Wistar rats; assay type: in vivo; conditions: after oral administration (gavage), male Wistar rats
Method: as §1
as §2, with “stomach by gavage.” for “tail vein using a Hamilton® glass syringe (bolus administration, duration of administration <10 s).”
The measured plasma concentrations are used to calculate pharmacokinetic parameters of the test substance and of the active ingredient compound (A) liberated therefrom, such as AUC, Cmax, T1/2 (half-life).

[4] = tested on: heart rate of anesthetized rats; assay: Influence on the heart rate of anesthetized rats; assay type: in vivo; conditions: maximum decrease in the first 30 min after i.v. bolus of 100 μg/kg of (A) or equivalent dosages; anesthetized male Wistar rats
Method: Male Wistar rats with a body weight above 250 g are employed. In the night before the experiment, the animals receive no feed but still have free access to drinking water. Preparation and investigations are carried out under Trapanal® anesthesia (100 mg/kg i.p.). Injection and infusion take place through a catheter in the jugular vein, and the blood pressure is recorded via a catheter in the femoral artery (transducer: Braun, Melsungen). After the preparation, the animals are connected to a continuous infusion of physiological saline solution to compensate fluid losses. Test substance or placebo solution are administered intravenously as bolus after an equilibration time of about 1 h. Heart rate and arterial blood pressure are recorded during the equilibration and over a period of at least 30 min after the bolus injection with the aid of a digital evaluation program.
Table 5 lists the maximum heart rate decrease in the first 30 min after an i.v. bolus of 100 μg/kg of the active substance (A) or of equivalent dosages of representative exemplary embodiments: […]

[5] = Determination of the solubility (24 h shaking at room temperature, ultracentrifugation, HPLC); assay type: physicochemical; conditions: thermodynamic from solid
Method: The test substance is suspended in water or dilute hydrochloric acid (pH 4) [Examples 1-21] or in 5% strength aqueous dextrose solution [Examples 22-40]. This suspension is shaken at room temperature for 24 h. After ultracentrifugation at 224 000 g for 30 min, the supernatant is diluted with DMSO and analyzed by HPLC. A two-point calibration plot of the test compound in DMSO is used for quantification.
Agilent 1100 with DAD (G1315A), quat. pump (G1311A), autosampler CTC HTS PAL, degasser (G1322A) and column thermostat (G1316A); column: Phenomenex Gemini C18, 5 μm, 50 mm×2 mm; temperature: 40° C.; eluent A: water/phosphoric acid pH 2, eluent B: acetonitrile; flow rate: 0.7 ml/min; gradient: 0-0.5 min 85% A, 15% B; ramp 0.5-3 min 10% A, 90% B; 3-3.5 min 10% A, 90% B; ramp 3.5-4 min 85% A, 15% B; 4-5 min 85% A, 15% B.
Agilent 1100 with DAD (G1315A), quat. pump (G1311A), autosampler CTC HTS PAL, degasser (G1322A) and column thermostat (G1316A); column: VDSoptilab Kromasil 100 C18, 3.5 μm, 60 mm×2.1 mm; temperature: 30° C.; eluent A: water+5 ml of perchloric acid/liter, eluent B: acetonitrile; flow rate: 0.75 ml/min; gradient: 0-0.5 min 98% A, 2% B; ramp 0.5-4.5 min 10% A, 90% B; 4.5-6 min 10% A, 90% B; ramp 6.5-6.7 min 98% A, 2% B; 6.7-7.5 min 98% A, 2% B.

[6] = aqueous buffer, dilute hydrochloric acid (pH 4)

Structure (SMILES) | % test substance after 4 h [F(t = 4 h) × 100/F(t = 0 h)] ([1]; pH 4, 37° C.) [%] | % test substance after 24 h [F(t = 24 h) × 100/F(t = 0 h)] ([1]; pH 4, 37° C.) [%] | % test substance after 4 h [F(t = 4 h) × 100/F(t = 0 h)] ([1]; pH 8, 37° C.) [%] | % test substance after 24 h [F(t = 24 h) × 100/F(t = 0 h)] ([1]; pH 8, 37° C.) [%] | Detectability of the test substance (prodrug) in plasma [2] | Detectability of the test substance (prodrug) in plasma [3] | Heart rate decrease [4] [%] | solubility at 24 h [5, 6] [µg/mL] | solubility at 24 h ([5]; saline or isotonic, 5% strength aqueous dextrose solution) [µg/mL] | % test substance after 4 h [F(t = 4 h) × 100/F(t = 0 h)] ([1]; pH 7.4, 37° C.) [%] | % test substance after 24 h [F(t = 24 h) × 100/F(t = 0 h)] ([1]; pH 7.4, 37° C.) [%]
N#Cc1c(N)nc(SCc2csc(-c3ccc(Cl)cc3)n2)c(C#N)c1-c1ccc(OCCOC(=O)CN)cc1 [Example 5, 2-{4-[2-Amino-6-({[2-(4-chlorophenyl)-1,3-thiazol-4-yl]methyl}thio)-3,5-dicyanopyridin-4-yl]-phenoxy}ethyl glycinate] | 100 | 100 | 94 | 68 | no longer detectable in plasma even at the first measurement point | no longer detectable in plasma even at the first measurement point | 21 | – | – | – | –
CN(C)CC(=O)OCCOc1ccc(-c2c(C#N)c(N)nc(SCc3csc(-c4ccc(Cl)cc4)n3)c2C#N)cc1 [Example 15, 2-{4-[2-Amino-6-({[2-(4-chlorophenyl)-1,3-thiazol-4-yl]methyl}thio)-3,5-dicyanopyridin-4-yl]-phenoxy}ethyl (N,N-dimethyl)glycinate] | 93 | 91 | 90 | 76 | no longer detectable in plasma even at the first measurement point | no longer detectable in plasma even at the first measurement point | 21 | 240 (≈ 397 µM) | – | – | –
N#Cc1c(N)nc(SCc2csc(-c3ccc(Cl)cc3)n2)c(C#N)c1-c1ccc(OCCOC(=O)CCC(=O)O)cc1 [Example 19, 4-(2-{4-[2-Amino-6-({[2-(4-chlorophenyl)-1,3-thiazol-4-yl]methyl}thio)-3,5-dicyanopyridin-4-yl]-phenoxy}ethoxy)-4-oxobutanoic acid hydrochloride] | – | – | – | – | – | no longer detectable in plasma even at the first measurement point | 18 | 57 | – | – | –
N#Cc1c(N)nc(SCc2csc(-c3ccc(Cl)cc3)n2)c(C#N)c1-c1ccc(OCCOC(=O)[C@@H](N)CCCN)cc1 [Example 22, 2-{4-[2-Amino-6-({[2-(4-chlorophenyl)-1,3-thiazol-4-yl]methyl}thio)-3,5-dicyanopyridin-4-yl]-phenoxy}ethyl L-ornithinate dihydrochloride] | 100 | 100 | – | – | no longer detectable in plasma even at the first measurement point | no longer detectable in plasma even at the first measurement point | 13 | – | > 500 | 0 | 0
